In the supplement of paper PMC10307832:

Experiments:
Assay in all cases: relative viability (nuclei count vs DMSO), 5 days (fraction); higher = more cells survive
[1] = tested on: EMC-BAC-2
Summary of the method: (§1)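 Relative viability is defined as nuclei in treated wells over nuclei in vehicle wells. Duplicate plates were run and medians reported. Lung cancer cell lines in 1536-well plates were dosed by pin tool one day after seeding, with one drug or with a fixed anchor-drug dose plus five library-drug doses (not always all listed) in √10 steps, and nuclei were counted after 5 days.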

[2] = tested on: EPLC-272H
Summary of the method: as §1

[3] = tested on: HCC-44
Summary of the method: as §1

[4] = tested on: HOP-62
Summary of the method: as §1

[5] = tested on: LOU-NH91
Summary of the method: as §1

[6] = tested on: NCI-H1437
Summary of the method: as §1

[7] = tested on: NCI-H1793
Summary of the method: as §1

[8] = tested on: NCI-H2009
Summary of the method: as §1

[9] = tested on: NCI-H2023
Summary of the method: as §1

[10] = tested on: NCI-H2126
Summary of the method: as §1

[11] = tested on: NCI-H2170
Summary of the method: as §1

[12] = tested on: NCI-H2347
Summary of the method: as §1

[13] = tested on: NCI-H23
Summary of the method: as §1

[14] = tested on: NCI-H2405
Summary of the method: as §1

[15] = tested on: NCI-H460
Summary of the method: as §1

[16] = tested on: NCI-H520
Summary of the method: as §1

[17] = tested on: NCI-H647
Summary of the method: as §1

[18] = tested on: NCI-H650
Summary of the method: as §1

[19] = tested on: NCI-H727
Summary of the method: as §1

[20] = tested on: SW 1573
Summary of the method: as §1

## O=C(O)CCCCC(CCSCc1ccccc1)SCc1ccccc1 (centres undefined) [CPI-613] + CS(=O)(=O)CCNCc1ccc(-c2ccc3ncnc(Nc4ccc(OCc5cccc(F)c5)c(Cl)c4)c3c2)o1 [Lapatinib] (partner 2 µM)
[1]; first compound 5 µM
  relative viability: 0.827
[1]; first compound 15.81 µM
  relative viability: 0.86
[1]; first compound 50 µM
  relative viability: 0.847
[1]; first compound 158.11 µM
  relative viability: 0.954
[1]; first compound 500 µM
  relative viability: 0.0887
[2]; first compound 5 µM
  relative viability: 0.905
[2]; first compound 15.81 µM
  relative viability: 0.828
[2]; first compound 50 µM
  relative viability: 0.879
[2]; first compound 158.11 µM
  relative viability: 1
[2]; first compound 500 µM
  relative viability: 0.857
[3]; first compound 5 µM
  relative viability: 0.991
[3]; first compound 15.81 µM
  relative viability: 0.937
[3]; first compound 50 µM
  relative viability: 1.04
[3]; first compound 158.11 µM
  relative viability: 0.838
[3]; first compound 500 µM
  relative viability: 0.0306
[4]; first compound 5 µM
  relative viability: 1.06
[4]; first compound 15.81 µM
  relative viability: 0.855
[4]; first compound 50 µM
  relative viability: 0.935
[4]; first compound 158.11 µM
  relative viability: 0.804
[4]; first compound 500 µM
  relative viability: 0.107
[5]; first compound 5 µM
  relative viability: 0.79
[5]; first compound 15.81 µM
  relative viability: 0.722
[5]; first compound 50 µM
  relative viability: 0.834
[5]; first compound 158.11 µM
  relative viability: 0.739
[5]; first compound 500 µM
  relative viability: 0.699
[6]; first compound 5 µM
  relative viability: 0.772
[6]; first compound 15.81 µM
  relative viability: 0.685
[6]; first compound 50 µM
  relative viability: 0.746
[6]; first compound 158.11 µM
  relative viability: 0.185
[6]; first compound 500 µM
  relative viability: 0.0285
[7]; first compound 5 µM
  relative viability: 0.683
[7]; first compound 50 µM
  relative viability: 0.732
[7]; first compound 158.11 µM
  relative viability: 0.306
[7]; first compound 500 µM
  relative viability: 0.0696
[8]; first compound 5 µM
  relative viability: 0.996
[8]; first compound 15.81 µM
  relative viability: 0.897
[8]; first compound 50 µM
  relative viability: 0.771
[8]; first compound 158.11 µM
  relative viability: 0.18
[8]; first compound 500 µM
  relative viability: 0.0119
[9]; first compound 5 µM
  relative viability: 0.694
[9]; first compound 15.81 µM
  relative viability: 0.63
[9]; first compound 50 µM
  relative viability: 0.755
[9]; first compound 158.11 µM
  relative viability: 0.0743
[9]; first compound 500 µM
  relative viability: 0.0041
[10]; first compound 5 µM
  relative viability: 0.723
[10]; first compound 15.81 µM
  relative viability: 0.754
[10]; first compound 50 µM
  relative viability: 0.758
[10]; first compound 158.11 µM
  relative viability: 0.612
[10]; first compound 500 µM
  relative viability: 0.738
[11]; first compound 5 µM
  relative viability: 0.259
[11]; first compound 15.81 µM
  relative viability: 0.273
[11]; first compound 50 µM
  relative viability: 0.249
[11]; first compound 158.11 µM
  relative viability: 0.261
[11]; first compound 500 µM
  relative viability: 0.188
[12]; first compound 5 µM
  relative viability: 0.986
[12]; first compound 15.81 µM
  relative viability: 0.846
[12]; first compound 50 µM
  relative viability: 0.762
[12]; first compound 158.11 µM
  relative viability: 0.563
[12]; first compound 500 µM
  relative viability: 0.766
[13]; first compound 5 µM
  relative viability: 0.95
[13]; first compound 15.81 µM
  relative viability: 0.812
[13]; first compound 50 µM
  relative viability: 0.873
[13]; first compound 158.11 µM
  relative viability: 0.261
[13]; first compound 500 µM
  relative viability: 0.0192
[14]; first compound 5 µM
  relative viability: 1.09
[14]; first compound 15.81 µM
  relative viability: 1.12
[14]; first compound 50 µM
  relative viability: 1.09
[14]; first compound 158.11 µM
  relative viability: 0.979
[14]; first compound 500 µM
  relative viability: 0.902
[15]; first compound 5 µM
  relative viability: 0.87
[15]; first compound 15.81 µM
  relative viability: 0.853
[15]; first compound 50 µM
  relative viability: 0.838
[15]; first compound 158.11 µM
  relative viability: 0.243
[15]; first compound 500 µM
  relative viability: 0.0072
[16]; first compound 5 µM
  relative viability: 0.887
[16]; first compound 15.81 µM
  relative viability: 0.634
[16]; first compound 50 µM
  relative viability: 0.912
[16]; first compound 158.11 µM
  relative viability: 0.264
[16]; first compound 500 µM
  relative viability: 0.103
[17]; first compound 5 µM
  relative viability: 0.962
[17]; first compound 15.81 µM
  relative viability: 0.698
[17]; first compound 50 µM
  relative viability: 0.757
[17]; first compound 158.11 µM
  relative viability: 0.27
[17]; first compound 500 µM
  relative viability: 0.0102
[18]; first compound 5 µM
  relative viability: 1.05
[18]; first compound 15.81 µM
  relative viability: 0.913
[18]; first compound 50 µM
  relative viability: 1.11
[18]; first compound 158.11 µM
  relative viability: 0.84
[18]; first compound 500 µM
  relative viability: 0.724
[19]; first compound 5 µM
  relative viability: 0.739
[19]; first compound 15.81 µM
  relative viability: 0.609
[19]; first compound 50 µM
  relative viability: 0.683
[19]; first compound 158.11 µM
  relative viability: 0.673
[19]; first compound 500 µM
  relative viability: 0.0973
[20]; first compound 5 µM
  relative viability: 1.24
[20]; first compound 15.81 µM
  relative viability: 1.06
[20]; first compound 50 µM
  relative viability: 1.13
[20]; first compound 158.11 µM
  relative viability: 1.06
[20]; first compound 500 µM
  relative viability: 1
